The values that follow come from US10772893B2, “2-(morpholin-4-yl)-1,7-naphthyridines” (BAYER PHARMA AKTIENGESELLSCHAFT, priority 2014, dated 2020).

Bounds are passed on as bounds.

This test relates to HeLa cells. The test can be described thus: Proliferation assay, crystal violet staining. The conditions noted are these: Homo sapiens, 96 h, read-out: Inhibition of HeLa cell proliferation, HeLa cells, 4 days incubation.

Method: After 24 hours, the cells of one plate (zero plate) were dyed with crystal violet (see below), whereas the medium of the other plates was replaced with fresh culture medium (200 μl) to which the test substances were added in various concentrations (0 μM, and also in the range of 0.001-10 μM; the final concentration of the solvent dimethyl sulphoxide was 0.1 or 0.5%). The cells were incubated for 4 days in the presence of the test substances. […] After washing the fixed cells three times with water, the plates were dried at room temperature. The cells were stained by adding 100 μl/measurement point of a 0.1% strength crystal violet solution (pH adjusted to pH 3 by adding acetic acid). After washing the cells three times with water, the plates were dried at room temperature. The dye was dissolved by adding 100 μl/measurement point of a 10% strength acetic acid solution. […] The percentage change in cell growth was calculated by normalizing the measured values to the absorbance values of the zero plate (=0%) and the absorbance of the untreated (0 W) cells (=100%). The IC50 values were determined by means of a four parameter fit.

Turning to `Cc1ncccc1-c1cc(N2CCOC[C@H]2C)nc2c(-c3ccn[nH]3)nccc12` [Example 218, 2-[(3R)-3-methylmorpholin-4-yl]-4-(2-methylpyridin-3-yl)-8-(1H-pyrazol-5-yl)-1,7-naphthyridine], the IC50 stood at 300 nM.

On to `CC(C)Oc1ncccc1-c1cc(N2CCOC[C@H]2C)nc2c(-c3ccn[nH]3)nccc12` [Example 219, 2-[(3R)-3-methylmorpholin-4-yl]-4-[2-(propan-2-yloxy)pyridin-3-yl]-8-(1H-pyrazol-5-yl)-1,7-naphthyridine], for which the IC50 came out at 2980 nM.

On to `c1cc(-c2cc(N3CCOCC3)nc3c(-c4ccn[nH]4)nccc23)ccn1` [Example 221, 2-(morpholin-4-yl)-8-(1H-pyrazol-5-yl)-4-(pyridin-4-yl)-1,7-naphthyridine], for which the IC50 is over 3000 nM.

Turning to `COc1ccc(Sc2cc(N3CCOC[C@H]3C)nc3c(-c4ccn[nH]4)nccc23)cc1` [Example 222, 4-[(4-methoxyphenyl)sulfanyl]-2-[(3R)-3-methylmorpholin-4-yl]-8-(1H-pyrazol-5-yl)-1,7-naphthyridine], the IC50 was determined as 975 nM.

As for `COc1cnccc1-c1cc(N2CCOC[C@H]2C)nc2c(-c3ccn[nH]3)nccc12` [Example 227, 4-(3-methoxypyridin-4-yl)-2-[(3R)-3-methylmorpholin-4-yl]-8-(1H-pyrazol-5-yl)-1,7-naphthyridine], the IC50 came to 1940 nM.

On to `C[C@@H]1COCCN1c1cc(-c2cc(Cl)cnc2F)c2ccnc(-c3ccn[nH]3)c2n1` [Example 229, 4-(5-chloro-2-fluoropyridin-3-yl)-2-[(3R)-3-methylmorpholin-4-yl]-8-(1H-pyrazol-5-yl)-1,7-naphthyridine], for which the IC50 came to 447 nM.

`C[C@@H]1COCCN1c1cc(-c2ccncc2F)c2ccnc(-c3ccn[nH]3)c2n1` [Example 230, 4-(3-fluoropyridin-4-yl)-2-[(3R)-3-methylmorpholin-4-yl]-8-(1H-pyrazol-5-yl)-1,7-naphthyridine]: the IC50 was 380 nM.

In the case of `Cc1cc(-c2cc(N3CCOC[C@H]3C)nc3c(-c4ccn[nH]4)nccc23)cnc1C` [Example 232, 4-(5,6-dimethylpyridin-3-yl)-2-[(3R)-3-methylmorpholin-4-yl]-8-(1H-pyrazol-5-yl)-1,7-naphthyridine], the IC50 worked out at 341 nM.

Take `Cc1ncc(-c2cc(N3CCOC[C@H]3C)nc3c(-c4ccn[nH]4)nccc23)cc1F` [Example 233, 4-(5-fluoro-6-methylpyridin-3-yl)-2-[(3R)-3-methylmorpholin-4-yl]-8-(1H-pyrazol-5-yl)-1,7-naphthyridine]: the IC50 worked out at 180 nM.

As for `Cc1cc(-c2cc(N3CCOC[C@H]3C)nc3c(-c4ccn[nH]4)nccc23)cs1` [Example 234, 2-[(3R)-3-methylmorpholin-4-yl]-4-(5-methylthiophen-3-yl)-8-(1H-pyrazol-5-yl)-1,7-naphthyridine], the IC50 was 1210 nM.

As for `COc1ccsc1-c1cc(N2CCOC[C@H]2C)nc2c(-c3ccn[nH]3)nccc12` [Example 235, 4-(3-methoxythiophen-2-yl)-2-[(3R)-3-methylmorpholin-4-yl]-8-(1H-pyrazol-5-yl)-1,7-naphthyridine], the IC50 was 950 nM.

As to `C[C@@H]1COCCN1c1cc(-c2ccsc2Cl)c2ccnc(-c3ccn[nH]3)c2n1` [Example 236, 4-(2-chlorothiophen-3-yl)-2-[(3R)-3-methylmorpholin-4-yl]-8-(1H-pyrazol-5-yl)-1,7-naphthyridine], the IC50 stood at 792 nM.

Turning to `C[C@@H]1COCCN1c1cc(-c2cncc3ccccc23)c2ccnc(-c3ccn[nH]3)c2n1` [Example 237, 4-(isoquinolin-4-yl)-2-[(3R)-3-methylmorpholin-4-yl]-8-(1H-pyrazol-5-yl)-1,7-naphthyridine], the IC50 was 528 nM.

For the compound `C[C@@H]1COCCN1c1cc(-c2ccc(Cl)s2)c2ccnc(-c3ccn[nH]3)c2n1` [Example 238, 4-(5-chlorothiophen-2-yl)-2-[(3R)-3-methylmorpholin-4-yl]-8-(1H-pyrazol-5-yl)-1,7-naphthyridine], the IC50 came out at 1180 nM.

Turning to `Cc1csc(-c2cc(N3CCOC[C@H]3C)nc3c(-c4ccn[nH]4)nccc23)c1` [Example 239, 2-[(3R)-3-methylmorpholin-4-yl]-4-(4-methylthiophen-2-yl)-8-(1H-pyrazol-5-yl)-1,7-naphthyridine], the IC50 came to 1130 nM.

Take `C[C@@H]1COCCN1c1cc(C2CCSCC2)c2ccnc(-c3ccn[nH]3)c2n1` [Example 241, 2-[(3R)-3-methylmorpholin-4-yl]-8-(1H-pyrazol-5-yl)-4-(tetrahydro-2H-thiopyran-4-yl)-1,7-naphthyridine]: the IC50 came out at 171 nM.

On to `C[C@@H]1COCCN1c1cc(C2=CCCN(C)C2)c2ccnc(-c3ccn[nH]3)c2n1` [Example 242, 2-[(3R)-3-methylmorpholin-4-yl]-4-(1-methyl-1,2,5,6-tetrahydropyridin-3-yl)-8-(1H-pyrazol-5-yl)-1,7-naphthyridine], for which the IC50 came out at 811 nM.

With `C[C@@H]1COCCN1c1cc(C2=CCN(C)CC2)c2ccnc(-c3ccn[nH]3)c2n1` [Example 243, 2-[(3R)-3-methylmorpholin-4-yl]-4-(1-methyl-1,2,3,6-tetrahydropyridin-4-yl)-8-(1H-pyrazol-5-yl)-1,7-naphthyridine], the IC50 came out at 360 nM.

In the case of `C[C@@H]1COCCN1c1cc(C2=CCNCC2)c2ccnc(-c3ccn[nH]3)c2n1` [Example 245, 2-[(3R)-3-methylmorpholin-4-yl]-8-(1H-pyrazol-5-yl)-4-(1,2,3,6-tetrahydropyridin-4-yl)-1,7-naphthyridine], the IC50 amounted to 343 nM.

In the case of `C[C@@H]1COCCN1c1cc(-c2ccn(C3CCOCC3)n2)c2ccnc(-c3ccn[nH]3)c2n1` [Example 246, 2-[(3R)-3-methylmorpholin-4-yl]-8-(1H-pyrazol-5-yl)-4-[1-(tetrahydro-2H-pyran-4-yl)-1H-pyrazol-3-yl]-1,7-naphthyridine], the IC50 was found to be 2840 nM.

For `C[C@@H]1COCCN1c1cc(-c2cnc(F)cc2F)c2ccnc(-c3ccn[nH]3)c2n1` [Example 247, 4-(4,6-difluoropyridin-3-yl)-2-[(3R)-3-methylmorpholin-4-yl]-8-(1H-pyrazol-5-yl)-1,7-naphthyridine], the IC50 came out at 228 nM.

`C[C@@H]1COCCN1c1cc(-c2cnn(C)c2)c2ccnc(-c3ccn[nH]3)c2n1` [Example 248, 2-[(3R)-3-methylmorpholin-4-yl]-4-(1-methyl-1H-pyrazol-4-yl)-8-(1H-pyrazol-5-yl)-1,7-naphthyridine]: the IC50 was 451 nM.

In the case of `Cc1nn(C)cc1-c1cc(N2CCOC[C@H]2C)nc2c(-c3ccn[nH]3)nccc12` [Example 249, 4-(1,3-dimethyl-1H-pyrazol-4-yl)-2-[(3R)-3-methylmorpholin-4-yl]-8-(1H-pyrazol-5-yl)-1,7-naphthyridine], the IC50 was determined as 409 nM.

`Cc1c(-c2cc(N3CCOC[C@H]3C)nc3c(-c4ccn[nH]4)nccc23)cnn1C` [Example 250, 4-(1,5-dimethyl-1H-pyrazol-4-yl)-2-[(3R)-3-methylmorpholin-4-yl]-8-(1H-pyrazol-5-yl)-1,7-naphthyridine]: the IC50 is 116 nM.

`C[C@@H]1COCCN1c1cc(C2CCNCC2)c2ccnc(-c3ccn[nH]3)c2n1` [Example 251, 2-[(3R)-3-methylmorpholin-4-yl]-4-(piperidin-4-yl)-8-(1H-pyrazol-5-yl)-1,7-naphthyridine]: the IC50 is 800 nM.

As for `C[C@@H]1COCCN1c1cc(-c2c[nH]nc2C(F)(F)F)c2ccnc(-c3ccn[nH]3)c2n1` [Example 252, 2-[(3R)-3-methylmorpholin-4-yl]-8-(1H-pyrazol-5-yl)-4-[3-(trifluoromethyl)-1H-pyrazol-4-yl]-1,7-naphthyridine], the IC50 was 222 nM.

For the compound `C[C@@H]1COCCN1c1cc(-c2cnn(C3CCC3)c2)c2ccnc(-c3ccn[nH]3)c2n1` [Example 253, 4-(1-cyclobutyl-1H-pyrazol-4-yl)-2-[(3R)-3-methylmorpholin-4-yl]-8-(1H-pyrazol-5-yl)-1,7-naphthyridine], the IC50 is 558 nM.

`C[C@@H]1COCCN1c1cc(-c2cnn(C3CC3)c2)c2ccnc(-c3ccn[nH]3)c2n1` [Example 254, 4-(1-cyclopropyl-1H-pyrazol-4-yl)-2-[(3R)-3-methylmorpholin-4-yl]-8-(1H-pyrazol-5-yl)-1,7-naphthyridine]: the IC50 is 312 nM.

For the compound `CC(C)n1cc(-c2cc(N3CCOC[C@H]3C)nc3c(-c4ccn[nH]4)nccc23)cn1` [Example 255, 2-[(3R)-3-methylmorpholin-4-yl]-4-[1-(propan-2-yl)-1H-pyrazol-4-yl]-8-(1H-pyrazol-5-yl)-1,7-naphthyridine], the IC50 was 458 nM.

For `Cc1nn(C)c(C)c1-c1cc(N2CCOC[C@H]2C)nc2c(-c3ccn[nH]3)nccc12` [Example 258, 2-[(3R)-3-methylmorpholin-4-yl]-8-(1H-pyrazol-5-yl)-4-(1,3,5-trimethyl-1H-pyrazol-4-yl)-1,7-naphthyridine], the IC50 was found to be 263 nM.

Take `C[C@@H]1COCCN1c1cc(-c2cn(C)nc2C(F)(F)F)c2ccnc(-c3ccn[nH]3)c2n1` [Example 259, 2-[(3R)-3-methylmorpholin-4-yl]-4-[1-methyl-3-(trifluoromethyl)-1H-pyrazol-4-yl]-8-(1H-pyrazol-5-yl)-1,7-naphthyridine]: the IC50 amounted to 497 nM.

As for `C[C@@H]1COCCN1c1cc(-c2cnn(CCO)c2)c2ccnc(-c3ccn[nH]3)c2n1` [Example 260], the IC50 was found to be 485 nM.

As for `CCn1cc(-c2cc(N3CCOC[C@H]3C)nc3c(-c4ccn[nH]4)nccc23)cn1` [Example 261, 4-(1-ethyl-1H-pyrazol-4-yl)-2-[(3R)-3-methylmorpholin-4-yl]-8-(1H-pyrazol-5-yl)-1,7-naphthyridine], the IC50 came to 420 nM.

Take `C[C@@H]1COCCN1c1cc(-c2ccn(C)c2)c2ccnc(-c3ccn[nH]3)c2n1` [Example 262, 2-[(3R)-3-methylmorpholin-4-yl]-4-(1-methyl-1H-pyrrol-3-yl)-8-(1H-pyrazol-5-yl)-1,7-naphthyridine]: the IC50 is 471 nM.

For the compound `CC(C)n1ccc(-c2cc(N3CCOC[C@H]3C)nc3c(-c4ccn[nH]4)nccc23)n1` [Example 263, 2-[(3R)-3-methylmorpholin-4-yl]-4-[1-(propan-2-yl)-1H-pyrazol-3-yl]-8-(1H-pyrazol-5-yl)-1,7-naphthyridine], the IC50 is 332 nM.
